Measured values from patent EP4215195A1, “LANATOSIDE C, CLOPIDOGREL, AND R406 IN TREATMENT OF CVD-CLONAL HEMATOPOIESIS OF INDETERMINATE POTENTIAL (CVD-CHIP)” (Genome Biologics UG, priority 2022, dated 2023).

How the values were obtained:
[1] = tested on: CHIP (siTET2) myeloid cells; test: Synthetic lethality screen of a CVD drug library, alamarBlue Cell Viability assay, CHIP cells; assay type: cell-based; details: THP-1 cells with TET2 siRNA knockdown; drugs 100 µM, 48 hours; compared with Vehicle
Description: (§1) The established disease model can subsequently be used for drug screening. Thus, a synthetic lethality screening of a CVD (cardiovascular disease) drug library was performed, treating CHIP (siTET2) or healthy (siScr) myeloid cells.
(§2) THP-1 cells were purchased from DSMZ (ACC 16) and maintained in RPMI-1640 (Gibco) +10% Fetal Calf Serum, 1% Penicillin/Streptomycin, 1% Glutamine, 0.05 mM 2-Mercaptoethanol.
(§3) THP-1 cells were differentiated from monocytes to macrophages by supplementing the media 100 ng/mL PMA and culturing for 48 h, and then in PMA-free media for another 24 h. For routine culturing, cells were maintained at 37°C, 5% CO2, 20% O2. In cardiopathologic culturing, both THP1 cells and organoids were maintained hypoxic conditions at 37°C, 5% CO2, 1% O2.
(§4) Transfection of THP-1 cells with siRNA purchased as ON-TARGETplus pools from Horizon Discovery (TET2 siRNA pool containing: ACAAGAAAGUAGAGGGUAU (SEQ ID NO 001), ACACCUAGUUUCAGAGAAU (SEQ ID NO 002), CCUCAGAAUAAUUGUGUGA (SEQ ID NO 003), CAGCAAAGGUACUUGAUAC (SEQ ID NO 004); Control siRNA pool containing: UGGUUUACAUGUUGUGUGA (SEQ ID NO 005), UGGUUUACAUGUUUUCCUA (SEQ ID NO 006)).
(§5) Working solution of 50µM siRNA was prepared in siRNA Buffer (ThermoFisher). 2 µL of 50µM siRNA were mixed with 500 µL OptiMEM and 6.25µL LTX Reagent PLUS (ThermoFisher) and incubated at room temperature (RT) for 15 min. 6.25 µL Lipofectamine LTX was added, mixed, and incubated for 30 min at RT. 500 µL were then added to the target culture and the culture was incubated at 37°C, 5% CO2. Passaging and/or media change was performed after 24 h.
(§6) THP-1 monocytes and macrophages were cocultured overnight (18 h) with siRNA. They were then washed with PBS and used for either TET2 knockdown quality control (as described below) or for the drug screening. For the screening, cells were transferred from tissue culture flasks to 384-well plates. Drugs were added to a final concentration of 100 µM and incubated for 48 hours. An alamarBlue Cell Viability assay (Invitrogen) with a 4 h incubation was performed according to the manufacturer's instructions.

[2] = tested on: healthy (siScr) myeloid cells; test: Synthetic lethality screen of a CVD drug library, alamarBlue Cell Viability assay, healthy cells; assay type: cell-based; details: THP-1 cells with control siRNA; drugs 100 µM, 48 hours; compared with Vehicle
Description: as §1, §2, §3, §4, §5, §6

[3] = tested on: CHIP (siTET2) myeloid cells; test: Trypan Blue Assay (cell death), CHIP cells; assay type: cell-based
[4] = tested on: healthy (siScr) myeloid cells; test: Trypan Blue Assay (cell death), healthy cells; assay type: cell-based
[5] = tested on: CHIP (siTET2) myeloid cells; test: Cl. Caspase Assay (apoptosis), CHIP cells; assay type: cell-based
[6] = tested on: healthy (siScr) myeloid cells; test: Cl. Caspase Assay (apoptosis), healthy cells; assay type: cell-based
[7] = tested on: CHIP-infiltrated cardiac organoids (siTET2); test: cTNT assay (Human Cardiac Troponin T ELISA) in organoid coculture; assay type: cell-based; details: siTET2 organoids treated vs Vehicle; healthy = siScr; 3 days of culturing
Description: The cTNT assay was performed using the Human Cardiac Troponin T ELISA® Kit (ab223860, Abcam) following the manufacturer's instructions.

[8] = tested on: CHIP-infiltrated cardiac organoids (siTET2); test: Cardiomyocyte apoptosis in cardiac organoids (Cleaved Caspase staining colocalized with α-Actinin); assay type: cell-based, human; details: siTET2 organoids treated vs Vehicle; healthy = siScr
Excerpt: To assess the CM death, the inventors used cleaved caspase staining which labels apoptotic cells. […] The increase in CM death in the TET2 KD group is further verified by an increase in cardiac troponin T (cTNT), a prognostic cardiac damage clinical biomarker (* p <0.05).

[9] = tested on: cardiac organoids infiltrated with CHIP myeloid cells; test: Gene expression (RNA levels of markers) in cardiac organoids infiltrated with CHIP myeloid cells; assay type: cell-based, human; details: treated vs Vehicle; normalized to healthy state = 1.0
[10] = tested on: CHIP-infiltrated cardiac organoids (siTET2); test: Myeloid cell infiltration into cardiac organoids (Qtracker staining, coculture); details: siTET2 organoids treated vs Vehicle; baseline siScr Vehicle; hypoxic coculture, 3 days

In the case of `COC(=O)[C@H](c1ccccc1Cl)N1CCc2sccc2C1` [Clopidogrel, clopidogrel], the “viability of CHIP myeloid cells (siTET2)” value [1] is reported as “selectively inhibit the viability of CHIP myeloid cells (siTET2)”, the “viability of healthy (siScr) cells” value [2] is reported as “without compromising the viability of healthy (siScr) cells” and the “levels of cell death of CHIP myeloid cells (Trypan Blue Assay)” value (“levels of cell death … (Trypan Blue Assay)” for short) [3] is reported as “increase the levels of cell death of CHIP myeloid cells”. For the same molecule, the “cell death of healthy (siScr) cells (Trypan Blue Assay)” value (shortened to “cell death of healthy (siScr) cells”) [4] was “without inflicting harm on the healthy (siScr) cells”, the “apoptosis of CHIP myeloid cells (CI. Caspase Assay)” value [5] was “increase the levels of cell death of CHIP myeloid cells (Trypan Blue Assay) and apoptosis in particular” and the “apoptosis of healthy (siScr) cells (CI. Caspase Assay)” value [6] was “without inflicting harm on the healthy (siScr) cells”. The “levels of the prognostic marker cTNT” value [7] was “decreased back to healthy levels”, the “cardiomyocyte apoptosis levels (areas of Cleaved Caspase staining)” value (“cardiomyocyte apoptosis levels” for short) [8] was “decreased areas of Cleaved Caspase staining back towards healthy levels” and the “RNA levels of myeloid, inflammatory, heart failure and fibrotic markers” value (shortened to “RNA levels of myeloid, inflammatory”) [9] was “rescued upon treatment with the 3 aforementioned drugs back down towards healthy levels (≤1.0)”. For the same molecule, the “infiltration of myeloid cells into organoids (Qtracker-stained area)” value (“infiltration” for short) [10] was “decreased levels of Qtracker-stained area upon treatment of siTET2 cells back to the baseline healthy levels”.
For `C[C@H]1O[C@@H](O[C@H]2[C@@H](O)C[C@H](O[C@H]3[C@@H](O)C[C@H](O[C@H]4CC[C@@]5(C)[C@H](CC[C@@H]6[C@@H]5CC[C@]5(C)[C@@H](C7=CC(=O)OC7)CC[C@]65O)C4)O[C@@H]3C)O[C@@H]2C)C[C@H](O)[C@@H]1O` [Digitoxin], the “viability of CHIP myeloid cells (siTET2)” value [1] was “only Ginsenoside Rb1 was found to do so significantly”.
With `CC(C)=CCC[C@](C)(O[C@@H]1O[C@H](CO[C@@H]2O[C@H](CO)[C@@H](O)[C@H](O)[C@H]2O)[C@@H](O)[C@H](O)[C@H]1O)[C@H]1CC[C@]2(C)[C@@H]1[C@H](O)C[C@@H]1[C@@]3(C)CC[C@H](O[C@@H]4O[C@H](CO)[C@@H](O)[C@H](O)[C@H]4O[C@@H]4O[C@H](CO)[C@@H](O)[C@H](O)[C@H]4O)C(C)(C)[C@@H]3CC[C@]12C` [Ginsenoside Rb1] the “viability of CHIP myeloid cells (siTET2)” value [1] was “found to do so significantly” and the “viability of healthy (siScr) cells” value [2] was “also decreases the viability of healthy cells”.
With `CC(=O)O[C@H]1C[C@H](O[C@H]2[C@@H](O)C[C@H](O[C@H]3[C@@H](O)C[C@H](O[C@H]4CC[C@@]5(C)[C@H](CC[C@@H]6[C@@H]5C[C@@H](O)[C@]5(C)[C@@H](C7=CC(=O)OC7)CC[C@]65O)C4)O[C@@H]3C)O[C@@H]2C)O[C@H](C)[C@H]1O[C@@H]1O[C@H](CO)[C@@H](O)[C@H](O)[C@H]1O` [Lanatoside C, lanatoside C] the “viability of CHIP myeloid cells (siTET2)” value [1] was “selectively inhibit the viability of CHIP myeloid cells (siTET2)”, the “viability of healthy (siScr) cells” value [2] was “without compromising the viability of healthy (siScr) cells” and the “levels of cell death … (Trypan Blue Assay)” value [3] was “increase the levels of cell death of CHIP myeloid cells”. For the same molecule, the “cell death of healthy (siScr) cells” value [4] was “without inflicting harm on the healthy (siScr) cells”, the “apoptosis of CHIP myeloid cells (CI. Caspase Assay)” value [5] was “increase the levels of cell death of CHIP myeloid cells (Trypan Blue Assay) and apoptosis in particular” and the “apoptosis of healthy (siScr) cells (CI. Caspase Assay)” value [6] was “without inflicting harm on the healthy (siScr) cells”. The “levels of the prognostic marker cTNT” value [7] was “decreased back to healthy levels”, the “cardiomyocyte apoptosis levels” value [8] was “decreased areas of Cleaved Caspase staining back towards healthy levels” and the “RNA levels of myeloid, inflammatory” value [9] was “rescued upon treatment with the 3 aforementioned drugs back down towards healthy levels (≤1.0)”. For the same molecule, the “infiltration” value [10] was “decreased levels of Qtracker-stained area upon treatment of siTET2 cells back to the baseline healthy levels”.
In the case of `COc1cc(Nc2ncc(F)c(Nc3ccc4c(n3)NC(=O)C(C)(C)O4)n2)cc(OC)c1OC` [R406], the “viability of CHIP myeloid cells (siTET2)” value [1] is reported as “selectively inhibit the viability of CHIP myeloid cells (siTET2)”, the “viability of healthy (siScr) cells” value [2] is reported as “without compromising the viability of healthy (siScr) cells” and the “levels of cell death … (Trypan Blue Assay)” value [3] is reported as “increase the levels of cell death of CHIP myeloid cells”. For the same molecule, the “cell death of healthy (siScr) cells” value [4] was “without inflicting harm on the healthy (siScr) cells”, the “apoptosis of CHIP myeloid cells (CI. Caspase Assay)” value [5] was “increase the levels of cell death of CHIP myeloid cells (Trypan Blue Assay) and apoptosis in particular” and the “apoptosis of healthy (siScr) cells (CI. Caspase Assay)” value [6] was “without inflicting harm on the healthy (siScr) cells”. The “levels of the prognostic marker cTNT” value [7] was “decreased back to healthy levels”, the “cardiomyocyte apoptosis levels” value [8] was “decreased areas of Cleaved Caspase staining back towards healthy levels” and the “RNA levels of myeloid, inflammatory” value [9] was “rescued upon treatment with the 3 aforementioned drugs back down towards healthy levels (≤1.0)”. For the same molecule, the “infiltration” value [10] was “decreased levels of Qtracker-stained area upon treatment of siTET2 cells back to the baseline healthy levels”.
With `CCCSc1nc(N[C@@H]2C[C@H]2c2ccc(F)c(F)c2)c2nnn([C@@H]3C[C@H](OCCO)[C@@H](O)[C@H]3O)c2n1` [Ticagrelor] the “viability of healthy (siScr) cells” value [2] was “also decrease the viability of healthy cells”.
In the case of `CCCCC[C@H](O)CC[C@@H]1[C@H]2Cc3cccc(OCC(=O)O)c3C[C@H]2C[C@H]1O` [Treprostinil Sodium], the “viability of healthy (siScr) cells” value [2] is reported as “also decrease the viability of healthy cells”.
For `CC(=O)Oc1cc(C(F)(F)F)ccc1C(=O)O` [Triflusal], the “viability of healthy (siScr) cells” value [2] was “also decrease the viability of healthy cells”.
With Escin the “viability of CHIP myeloid cells (siTET2)” value [1] was “only Ginsenoside Rb1 was found to do so significantly”.
